Source: PubChem BioAssay (NCI)
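Tested at 5 concentrations; 48 h exposure; 96-well plates; endpoints linearly interpolated, else capped at highest concentration. Here, GI50 denotes the concentration required for 50% inhibition of growth. Definition used: TGI = concentration required for complete inhibition of growth.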

Assays:
Test in all cases: DTP human tumour cell line panel, 48 h
[1] = test system: HOP-18 NSCLC
[2] = test system: M19-MEL melanoma
[3] = test system: SNB-78 CNS
[4] = test system: XF 498 CNS
[5] = test system: DMS 114 small cell lung
[6] = test system: KM20L2 colon
[7] = test system: RXF-631 renal

In the case of CC(C)C1C(=O)NC(CO)Cc2c[nH]c3c(C(c4c[nH]c5ccccc45)C(O)CO)ccc(c23)N1C (stereo not drawn), the TGI [1] is reported as > 100 µM, the TGI [2] is reported as > 100 µM and the TGI [3] is reported as > 100 µM. The TGI [4] was > 100 µM.

For CC(C)N(C(=O)C1(C)CC1)C(C)C, the TGI [5] was > 100 µM, the TGI [1] was > 100 µM and the TGI [6] was > 100 µM. For the same compound, the TGI [2] was > 100 µM, the TGI [7] was > 100 µM and the TGI [3] was > 100 µM. The TGI [4] was > 100 µM.

Cc1ccc2[nH]c3c(C)c4c(c(C)c3c2c1)CN(C)C=C4 gave a GI50 [5] of 0.437 µM, a TGI [5] of 2.1 µM and a TGI [1] of 26.9 µM. For the same compound, the TGI [6] was 11.8 µM, the TGI [7] was 8.75 µM and the TGI [3] was 3.41 µM. The TGI [4] was 6.06 µM.

O=c1c(-c2ccccc2)c2oc(c1-c1ccccc1)CS(=O)(=O)CCC2 was tested, and the TGI [5] was > 100 µM, the TGI [1] was > 100 µM and the TGI [2] was 30.7 µM. The TGI [4] was 24.7 µM.

With COc1ccc(/C=C/C(=O)C(C)(C)CN2CCCCC2)cc1 the TGI [5] was 29.6 µM, the TGI [1] was 60.4 µM and the TGI [6] was > 100 µM. It also gave a TGI [2] of 33.8 µM, a TGI [3] of 69 µM and a TGI [4] of 30.1 µM.

For CC(=O)NC(CCCCN(Cc1ccccc1)C(=O)NCCCl)C(=O)NCc1ccccc1 (stereo not drawn), the TGI [5] was > 100 µM, the TGI [1] was > 100 µM and the TGI [6] was > 100 µM. The TGI [7] was > 100 µM.

O=C1OC2C(O)COC2(O)C1(O)C(C[N+](=O)[O-])c1ccc(Cl)cc1 (stereo not drawn) was tested, and the TGI [5] was 9.99 µM, the TGI [1] was 21.6 µM and the TGI [6] was 6.17 µM. For the same compound, the TGI [2] was 6.84 µM and the TGI [3] was 71.6 µM.

With O=C(CSc1nnc(Cc2ccccc2)o1)Nc1cccc(Cl)c1 the TGI [1] was > 100 µM, the TGI [6] was > 100 µM and the TGI [2] was > 100 µM. The TGI [3] was > 100 µM.

COc1ccc(/C=N/N=C(\N)NO)c(Cl)c1O was tested, and the TGI [5] was > 100 µM, the TGI [1] was 54.2 µM and the TGI [2] was 53.3 µM. For the same compound, the TGI [3] was > 100 µM.

COc1cc(OC)c2ssc3c(OC)cc(OC)c4ssc1c2-c43 was tested, and the TGI [5] was > 100 µM, the TGI [1] was > 100 µM and the TGI [6] was > 100 µM. The TGI [2] was > 100 µM, the TGI [3] was > 100 µM and the TGI [4] was > 100 µM.

O=C(/C=C/c1ccc(O)c(O)c1)OC1C[C@@](O)(C(=O)O)C[C@@H](O)[C@H]1OC(=O)/C=C/c1ccc(O)c(O)c1 (stereo partly drawn) was tested, and the TGI [5] was > 100 µM, the TGI [1] was > 100 µM and the TGI [6] was > 100 µM. For the same compound, the TGI [2] was > 100 µM, the TGI [3] was > 100 µM and the TGI [4] was > 100 µM.

For COc1c(C)c2c(c3c1c(=O)c1ccccc1n3C)C=CC(C)(C)O2, the TGI [5] was 43 µM, the TGI [1] was 97.8 µM and the TGI [6] was > 100 µM. The TGI [2] was 82.4 µM, the TGI [3] was 72.9 µM and the TGI [4] was 55.7 µM.

With O=c1cc(-c2ccccc2)oc2cc(OCC(O)COc3ccc4c(=O)cc(-c5ccccc5)oc4c3)ccc12 the TGI [5] was > 100 µM, the TGI [1] was > 100 µM and the TGI [6] was > 100 µM. For the same compound, the TGI [2] was > 100 µM, the TGI [3] was 58.9 µM and the TGI [4] was 48.1 µM.

In the case of CC(/C=C/C(=O)c1sc(-n2nc(-c3ccccc3)cc2-c2ccccc2)nc1C)=C\c1ccccc1, the TGI [5] is reported as > 100 µM, the TGI [6] is reported as > 100 µM and the TGI [2] is reported as > 100 µM. For the same compound, the TGI [7] was > 100 µM.

For CCOC(=O)C1(C#N)C(c2ccccc2)CC(O)(c2ccc([N+](=O)[O-])cc2)C(C(=O)c2ccc([N+](=O)[O-])cc2)C1c1ccccc1 (stereo not drawn), the TGI [5] was > 100 µM, the TGI [1] was > 100 µM and the TGI [6] was > 100 µM. The TGI [2] was > 100 µM, the TGI [3] was > 100 µM and the TGI [4] was > 100 µM.

In the case of CC(C)(Br)C(Br)CCC(=CCBr)CBr (mixture of isomers), the TGI [1] is reported as 31.9 µM, the TGI [2] is reported as 4.2 µM and the TGI [3] is reported as 17.1 µM.

CCOC(=O)C[C@@H](C)[C@]1(C(=O)OC)CCCC1=O was tested, and the TGI [5] was > 58.9 µM, the TGI [1] was > 100 µM and the TGI [6] was > 100 µM. The TGI [2] was > 100 µM, the TGI [3] was > 100 µM and the TGI [4] was > 100 µM.
